From PMC6493773, “Structure and mechanism of TagA, a novel membrane-associated glycosyltransferase that produces wall teichoic acids in pathogenic bacteria” (PLoS Pathogens, 2019)

What was measured:
[1] = molecular target: T1, full-length TagA from T. italicus (UniProt D3T4E0); assay: anion-exchange HPLC of UDP formation, […] nm; assay type: biochemical, Thermoanaerobacter thermocopriae; conditions: 200 nM enzyme; UDP-ManNAc made in situ from 100 μM UDP-GlcNAc by MnaA; 100 μM lipid-α analog; pH 7.5, 250 mM NaCl, 30°C
T1 construct: gene Thit_1850; full-length (195 + 49 C-terminal residues); purification details only in supplement
T1 sequence (D3T4E0 entry or part of it): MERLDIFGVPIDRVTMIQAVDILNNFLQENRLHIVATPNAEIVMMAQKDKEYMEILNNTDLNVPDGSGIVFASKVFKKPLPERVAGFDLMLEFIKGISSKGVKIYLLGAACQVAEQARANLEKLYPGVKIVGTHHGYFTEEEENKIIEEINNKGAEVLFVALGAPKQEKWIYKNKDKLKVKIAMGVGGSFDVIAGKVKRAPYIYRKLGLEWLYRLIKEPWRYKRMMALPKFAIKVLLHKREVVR

[2] = molecular target: T2, full-length TagA from S. aureus (Staphylococcus aureus, UniProt Q7A714); assay: anion-exchange HPLC of UDP formation, […] nm; assay type: biochemical; conditions: 200 nM enzyme; UDP-ManNAc made in situ from 100 μM UDP-GlcNAc by MnaA; 100 μM lipid-α analog; pH 7.5, 250 mM NaCl, 30°C
T2 construct: gene tarA; full-length; strain and plasmid only in supplement
T2 sequence (Q7A714 whole entry): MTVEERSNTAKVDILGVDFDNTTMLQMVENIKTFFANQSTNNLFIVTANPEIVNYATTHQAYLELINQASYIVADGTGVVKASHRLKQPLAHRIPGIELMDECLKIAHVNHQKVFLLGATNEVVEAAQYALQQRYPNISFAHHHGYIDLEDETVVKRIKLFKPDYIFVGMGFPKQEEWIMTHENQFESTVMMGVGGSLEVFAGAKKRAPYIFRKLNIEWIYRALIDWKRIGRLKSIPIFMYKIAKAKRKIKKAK

`CC(=O)N[C@@H]1[C@@H](OP(=O)(O)OP(=O)(O)OC[C@H]2O[C@@H](n3ccc(=O)[nH]c3=O)[C@H](O)[C@@H]2O)O[C@H](CO)[C@@H](O)[C@@H]1O` [UDP-ManNAc] was tested, and the “anion-exchange HPLC of UDP formation, 271 nm” value (from here on “anion-exchange HPLC”) [1] was “we reconstituted its GT activity in vitro using UDP-ManNAc and a lipid-α analog” and the “anion-exchange HPLC” value [2] was “full-length TagA enzymes from T. italicus and S. aureus exhibit similar transferase activities in vitro”.

With `CCCCCCCCCCCCCOP(=O)(O)OP(=O)(O)O[C@H]1O[C@H](CO)[C@@H](O)[C@H](O)[C@H]1NC(C)=O` [lipid-α analog] the “anion-exchange HPLC” value [1] was “using UDP-ManNAc and a lipid-α analog that replaces its undecaprenyl chain with tridecane”.
